Measurements reported in patent US20240116986A1, “FUSION PEPTIDES CONTAINING DIMERIC ALPHA-HELICES, PEPTIDE-MOLECULARCONJUGATES CONTAINING THE SAME AND NUCLEIC ACID DELIVERY COMPOSITIONSCONTAINING THE SAME” (Artprobio Co., Ltd., priority 2022, published 2024).

How the values were obtained:
[1] = tested on: linear double-stranded DNA (dsDNA) (7528 base pairs); assay: EMSA of nanostructure formation with dsDNA; type: binding
Description: (§1) When a nanostructure was formed through self-assembly by reacting a peptide-molecule conjugate (SAB) with a nucleic acid material (dsDNA or mRNA), agarose gel EMSA was conducted to measure their interactions, binding ratio, stability, etc.
For this, a pTWIN1 plasmid DNA vector was purchased from New England BioLabs (Ipswich, USA), genetically recombined to express a specific protein (Rev), and then linearized with a BamH1 restriction enzyme purchased from the same company to prepare a linear double-stranded DNA (dsDNA) (7528 base pairs). The peptide-molecule conjugates of Examples 1-3 (SAB1 to SAB3) were dispersed in distilled water to prepare 20 μM aqueous solutions. The SAB1 to SAB3 aqueous solutions (20 μM, 50 μL) were sonicated for at least 5 minutes and then immediately added to the dsDNA solution (200 μL). […] A SAB2/dsDNA nanostructure was prepared by incubating the mixture overnight. Then, after centrifuging at 16,100 g for 30 minutes, the nanostructure was resuspended in deionized water. After washing twice, the nanostructure was analyzed by TEM and EMSA.

[2] = tested on: EGFP mRNA; assay: EMSA of nanostructure formation with EGFP mRNA; type: binding; conditions: EMSA; mRNA concentration fixed; incubated overnight
Description: as §1
First, the nucleic acid material of a fixed concentration (100 fmol mRNA) was reacted with the peptide-molecule conjugate (SAB) of various concentrations. Immediately before mixing with the nucleic acid material, the peptide-molecule conjugate (SAB) was sonicated for 5 minutes to prevent self-aggregation. The sonicated peptide-molecule conjugate (SAB, 5 μL) was added to the nucleic acid material ([…]) and a nanostructure was prepared by adding distilled water. The sample was prepared by snap cooling. Specifically, after heating at 70° C. for 10 minutes and snap-cooling on ice, the prepared sample was stored at room temperature. The stored sample was mixed with 2 μL of 60% glycerol. Electrophoresis was performed at 100 V for 60 minutes on 0.8% agarose gel using 1×TBE. The band was observed after staining with SYBR™ Gold nucleic acid gel stain (Invitrogen, Waltham, USA).
After sonicating the peptide-molecule conjugate (SAB-gn, n=1 to 6) aqueous solution for 5 minutes, it was immediately mixed with an EGFP mRNA (200 μL) solution. […] An […] nanostructure was prepared as follows by mixing the peptide-molecule conjugate (SAB-gn, n=1 to 6) with the EGFP mRNA. […] The EGFP mRNA and the peptide-molecule conjugate (SAB-gn, n=1 to 6) were mixed at a charge ratio (+/−) of 0, 0.008, 0.016, 0.031, 0.063, 0.125, 0.25, 0.5, 1, 2, 4, 8, 16, 32 or 50.
After incubating the mixture solution overnight and centrifuging at 16,100 g for 30 minutes, the mixture was resuspended in deionized water. After washing twice, the resulting nanostructure was analyzed by EMSA.
After incubating the mixture solution overnight and centrifuging at 16,100 g for 30 minutes, the mixture was resuspended in deionized water.
After heating the mixed solution for 10 minutes at 70° C., it was immediately snap-cooled on ice. RiboRuler Low Range RNA Ladder and RiboRuler High Range RNA Ladder (Thermo Scientific, Waltham, USA) were used on the two lanes on the left side of agarose gel in order to identify the relative locations of the EGFP mRNA bands. The bands of the RiboRuler Low Range RNA Ladder correspond to 1000, 800, 600, 400, 300, 200 and 100 bases, from top to bottom, and the bands of the RiboRuler High Range RNA Ladder correspond to 6000, 4000, 3000, 2000, 1500, 1000, 500 and 200 bases, from top to bottom. Then, the mixtures with charge ratios (+/−) of 0, 0.031, 0.063, 0.125, 0.25, 0.5, 1, 2, 4, 8 and 16 were loaded in sequence.
After heating the mixed solution for 10 minutes at 70° C., it was immediately snap-cooled on ice. RiboRuler High Range RNA Ladder (Thermo Scientific, Waltham, USA) was used on the left side of agarose gel in order to identify the relative locations of the EGFP mRNA bands. The bands of the RiboRuler High Range RNA Ladder correspond to 6000, 4000, 3000, 2000, 1500, 1000, 500 and 200 bases, from top to bottom. Then, the samples were loaded with charge ratios (+/−) of 00, 0.063, 0.125, 0.25, 0.5, 1, 2, 4, 8, 16 and 32 in sequence.

[3] = Coating of gold nanoparticles (TEM); conditions: citrate-modified AuNP aqueous solution
Description: Colloidal gold was prepared by reducing HAuCl4 with sodium citrate. 50 mL of a 0.01% HAuCl4 (0.243 mM) aqueous solution was boiled vigorously while stirring in a round-bottom flask equipped with a reflux condenser. Then, 10 mL of a 0.1% sodium citrate aqueous solution (3.4 mM) was added to the boiling HAuCl4 solution. The color of the solution turned from yellow to deep purple and then to wine red within 3 minutes. The mixture was boiled further for 10 minutes and cooled to room temperature while continuously stirring overnight. The concentration of the colloidal gold was determined with a spectrophotometer.
It was investigated whether the gold nanoparticles (AuNP) prepared above are coated with the peptide-molecule conjugates prepared in Examples 1-3 (SAB1 to SAB3). First, the peptide-molecule conjugates of Examples 1-3 (SAB1 to SAB3) were dispersed in distilled water to prepare 20 μM aqueous solutions, respectively. After sonicating the SAB1 to SAB3 aqueous solutions (20 μM, 50 μL) for at least 5 minutes, they were immediately added to the AuNP solution (200 μL), respectively. […] After washing twice, the solution was analyzed by CD and TEM.

Ac-(PEG8)-AELAALEAELAALE-(Ahx)2-K-(Ahx)2-KLAALKAKLAALKAG-(PEG8)-NH2 [SAB2]
nanostructure formation with dsDNA [1]: best result
charge ratio (+/−) from which delay of EMSA band was observed ([1]; dsDNA concentration fixed): 0.031
charge ratio at which SAB2/dsDNA nanostructure was prepared through self-assembly ([1]; dsDNA concentration fixed): 0.5
+/− (optimum charge ratio of EGFP mRNA and conjugate showing completely delayed electrophoretic mobility) [2]: 30
dispersibility of coated gold nanoparticles [3]: precipitates were formed due to aggregation of the gold nanoparticles
